Results on seven molecules are retold here after patent US20260217764A1, “SELECTIVE INHIBITORS OF C. ACNES HYALURONIDASE” (priority 2022, published 2026).

Square brackets hold non-standard residues; d marks the D form. Ends that are not written are not given here. Peptide text beside a SMILES is read from it.

Test [1] deals with T1, HylA (Cutibacterium acnes, UniProt A0A2B7ICX0).
T1 construct: HylA (41-805) were cloned into; His6 (N); MBP (N); made in house; host or cells: E. coli BL21(DE3) pLysS
Kind of test: Microscale thermophoresis (MST) measurement of HylA binding to peptide inhibitors. Also noted: species or system C. acnes. Here is the method: The Monolith NT.115 instrument (Nanotemper Technologies, München, Germany) was used to measure the binding of peptide inhibitors to the HylA. For the MST experiment, the HylA is fluorescently labeled by cysteine labeling by using the Monolith protein labeling kit RED-MALEIMIDE 2nd generation (Catalog Number: L014). The assay is performed in 100 mM Sodium acetate buffer pH 5.3 supplied with 0.05% Tween-20. A serial dilution of the 1932 peptide (50 μM through 1.5 nM) was titrated against 30 nM fluorescent labeled HylA. For the titration, 10 μL of each concentration of the peptide was mixed with 10 μL of the fluorescent labeled HylA. The MST measurement settings include medium MST power, 40% excitation power, Nano-RED excitation type and 25° C. thermostat temperature. Affinity of the peptide binding to HylA was determined by the MO.Affinity Analysis Software (Nanotemper Technologies, München, Germany).
(Microscale thermophoresis detects binding through changes in fluorescence in a small temperature gradient.)

The test system of test [2] is HL043PA1 strain. Kind of test: Mouse acne model, inhibitor co-injected i.d. with acne-associated HL043PA1 strain. The test is classed as in vivo, C. acnes. As to conditions: CD1 mice, 10 μg inhibitor co-injected i.d. with 2×10^7 CFU HL043PA1, disease score and skin cytokines 24 hr post-infection. Here is the method: To model human acne disease, 8 weeks-old mice were i.d. infected with C. acnes strains (2×10^7 CFU in 50 μl volume of BHI media), followed by the topical application of synthetic sebum daily as described previously. i.d. infections were performed under vaporized Isoflurane (Fluriso, Vet One) anesthesia. Synthetic sebum was made by mixing fatty acid (17% oleic acid; Catalog no. #01008, Millipore Sigma), triglyceride (45% triolein; Catalog no. #ICN10312201, FisherScientific), wax monoester (25% jojoba oil, Trader Joe), and squalene (13%; Catalog no. #AC215351000, FisherScientific). One or two days after infection, disease score was assessed and the mice were euthanized by C02. Skin lesions were aseptically excised and harvested in phosphate buffer saline (PBS, pH 7.4). […]
Gross skin pathology was scored based on tabulation of the following: Erythematous change (no=0, mild=1, moderate 2, and marked=3); papule (flat=0, small=1, large=2. And extra-large=3) based on a protocol modified from.
For in vivo experiments, inhibitors (10 μg) were injected along with C. acnes strains (2×10^7 CFU) i.d. into CD1 mice, followed by the topical application of sebum. After 24 hr, bacterial count (CFU/ml), size of the skin lesions and proinflammatory cytokines (IL-1β, IL-6 and TNF-α) in skin lesions were measured. […]

Test [3] deals with T2, rHylA (Cutibacterium acnes, UniProt A0A2B7ICX0).
T2 construct: HylA (41-805) were cloned into; His6 (N); MBP (N); made in house; host or cells: E. coli BL21(DE3) pLysS
Kind of test: HA digested with rHylA in presence of inhibitor, digest applied to HaCaT cells, IL-6 by ELISA. In kind it is cell-based, C. acnes. As to conditions: inhibitor 5 or 10 μM, HA 2 mg/ml digested with rHylA 24 hr, IL-6 in HaCaT culture supernatant. As for the experimental part: HaCaT cells (ATCC) were cultured in complete DMEM media (Catalog no. 10-013-CV, Corning incorporated, USA) plus 10% heat-inactivated FBS in 5% C02 at 37° C. Before cell stimulation with digested HA (40 μg), HaCaT cells were seeded in 96-wells Falcon® 96-well tissue culture plate (Catalog no. #353072, corning incorporated, USA) at a concentration of 10^5 cells/ml and incubated in 5% CO2 at 37° C. for 6 hr, followed by washing with DMEM media and cell stimulation.
For BMDMs and HaCaT cell assays, an equivalent of 40 μg of HA digest was used to stimulate 10^5 cells for 8 and 16 hr, respectively. Cells were plated in a Falcon® 96-well tissue culture plate and cultured in 200 μl of complete RPMI medium supplemented with 10% FBS and 1× penicillin-streptomycin antibiotics solution. […]
IL-1β, IL-6, and TNF-α cytokine levels in skin homogenates, previously stored at −80° C., were measured by a solid-phase sandwich ELISA using commercially available mouse cytokine ELISA kits (Biolegend, San Diego, CA, USA). […] The plates were developed and read at optical density (OD) of 450 nm with a wavelength correction set to 570 nm in a multimode microplate reader (PerkinElmer, Waltham, MA, USA). […]
On the technique in general: ELISA stands for enzyme-linked immunosorbent assay.

In test [4] the target is C. acnes hyaluronidase HylA, recombinant (rHylA), fluorescently labeled (C. acnes). Kind of test: not given; MST against fluorescent labeled HylA per the methods.
Test [5] shares this target. Kind of test: Microscale thermophoresis (MST), peptide titrated against fluorescent labeled HylA.
Test [6] has as its target T3, C. acnes hyaluronidase HylA, recombinant (rHylA), fluorescently labeled (C. acnes, UniProt A0A2B7ICX0 41-805, Fluorescently labelled on cysteine(s) with the RED-MALEIMIDE 2nd generation dye. Which cysteine carries the dye is not stated.).
T3 construct: TEV cleavage is described only for the crystallization preparation; not shown: N-terminal His6-MBP-TEV tag from the pET His6 MBP TEV LIC vector
T3 sequence: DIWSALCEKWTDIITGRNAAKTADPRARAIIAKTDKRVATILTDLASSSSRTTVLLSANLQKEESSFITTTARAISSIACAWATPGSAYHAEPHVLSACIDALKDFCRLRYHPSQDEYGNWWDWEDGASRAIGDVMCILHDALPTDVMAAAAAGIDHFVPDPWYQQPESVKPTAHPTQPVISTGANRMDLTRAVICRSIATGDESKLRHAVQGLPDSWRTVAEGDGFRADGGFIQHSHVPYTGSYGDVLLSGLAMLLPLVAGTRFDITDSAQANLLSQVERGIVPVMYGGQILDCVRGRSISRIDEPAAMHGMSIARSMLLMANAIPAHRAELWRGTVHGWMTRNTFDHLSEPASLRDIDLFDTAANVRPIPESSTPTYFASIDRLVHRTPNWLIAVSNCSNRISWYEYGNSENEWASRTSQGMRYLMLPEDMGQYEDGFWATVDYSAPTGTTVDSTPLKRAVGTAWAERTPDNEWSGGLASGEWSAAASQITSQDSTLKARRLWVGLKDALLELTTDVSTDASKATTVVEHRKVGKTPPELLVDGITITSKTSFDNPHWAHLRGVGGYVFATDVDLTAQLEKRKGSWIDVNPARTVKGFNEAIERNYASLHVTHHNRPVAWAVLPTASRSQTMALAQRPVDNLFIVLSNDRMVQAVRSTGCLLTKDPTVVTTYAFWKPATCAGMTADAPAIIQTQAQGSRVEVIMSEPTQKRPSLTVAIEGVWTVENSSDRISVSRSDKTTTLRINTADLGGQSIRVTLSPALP
Kind of test: not given; MST against fluorescent labeled HylA per the methods.

Test [7] has as its target T3, C. acnes hyaluronidase HylA, …. Kind of test: microscale thermophoresis (MST), peptide titrated against fluorescently labeled HylA, Kd model fit, mean +/- SD of triplicates.
The target is the same in test [8]. Kind of test: Microscale thermophoresis (MST), peptide titrated against fluorescent labeled HylA.
The mark [9] stands for this setting: binding constant (KD), MST, peptide titrated against 30 nM fluorescent labeled HylA, values in running text and figure legend.

Consider `NC(=O)[C@@H](CCC(=O)O)NC(=O)[C@H](CO)NC(=O)[C@@H](CCC(=O)O)NC(=O)[C@H](Cc1ccc(O)cc1)NC(=O)[C@@H](CCC(=O)O)NC(=O)[C@H](CC(=O)O)NC(=O)[C@@H](N)Cc1ccc(O)cc1` [i93, Tyr-Asp-dGlu-Tyr-dGlu-Ser-dGlu-NH2] (H-YD[dE]Y[dE]S[dE]-NH2; N-terminus assumed), for which the Kd (usually the constant that tells how readily two partners part at equilibrium) in test [1] (KD, table Peptides' properties) came to 140 µM; in test [1] (setting [9]), 911 µM.
`N[C@@H](Cc1ccc(O)cc1)C(=O)N[C@@H](CC(=O)O)C(=O)N[C@H](CCC(=O)O)C(=O)N[C@@H](Cc1ccc(O)cc1)C(=O)N[C@H](CCC(=O)O)C(=O)N[C@@H](CO)C(=O)N[C@H](CCC(=O)O)C(=O)O` [i94, Tyr-Asp-dGlu-Tyr-dGlu-Ser-dGlu-OH] (H-YD[dE]Y[dE]S[dE]-OH; N-terminus assumed) displayed a dissociation constant Kd in test [1] (KD, table Peptides' properties) of 4.3 µM.
For the molecule `NC(=O)[C@@H](CCC(=O)O)NC(=O)[C@H](CO)NC(=O)[C@H](CC(=O)O)NC(=O)[C@H](Cc1ccc(O)cc1)NC(=O)[C@@H](CCC(=O)O)NC(=O)[C@H](CC(=O)O)NC(=O)[C@H](Cc1ccc(O)cc1)NC(=O)[C@@H](CCC(=O)O)NC(=O)[C@H](CO)NC(=O)[C@@H](CCC(=O)O)NC(=O)[C@H](Cc1ccc(O)cc1)NC(=O)[C@@H](CCC(=O)O)NC(=O)[C@H](CC(=O)O)NC(=O)[C@@H](N)Cc1ccc(O)cc1` [i932, Tyr-Asp-dGlu-Tyr-dGlu-Ser-dGlu-Tyr-Asp-dGlu-Tyr-Asp-Ser-dGlu-NH2] (H-YD[dE]Y[dE]S[dE]YD[dE]YDS[dE]-NH2; N-terminus assumed), the efficacy in vivo entry in test [2] was “highest efficacy”. Besides, the dissociation constant Kd in test [1] (setting [9]) stood at 3.06 µM; in test [1] (binding constant (KD), MST, peptide titrated against fluorescent labeled HylA, value), 0.0216 µM. Further, in test [3], the efficacy in vitro entry is recorded as “highest efficacy”.
For the molecule “peptide i93, Tyr-Asp-dGlu-Tyr-dGlu-Ser-dGlu-NH2”, the Kd in test [4] is 140 µM; in test [5], 912 µM.
For “peptide i94, Tyr-Asp-dGlu-Tyr-dGlu-Ser-dGlu-OH”, the Kd in test [4] came out at 4.3 µM.

B1: peptide i932, Tyr-Asp-dGlu-Tyr-dGlu-Ser-dGlu-Tyr-Asp-dGlu-Tyr-Asp-Ser-dGlu-NH2 (peptide)
peptide: YD[dE]Y[dE]S[dE]YD[dE]YDS[dE]-NH2
modifications: N-terminus assumed
SMILES: NC(=O)[C@@H](CCC(=O)O)NC(=O)[C@H](CO)NC(=O)[C@H](CC(=O)O)NC(=O)[C@H](Cc1ccc(O)cc1)NC(=O)[C@@H](CCC(=O)O)NC(=O)[C@H](CC(=O)O)NC(=O)[C@H](Cc1ccc(O)cc1)NC(=O)[C@@H](CCC(=O)O)NC(=O)[C@H](CO)NC(=O)[C@@H](CCC(=O)O)NC(=O)[C@H](Cc1ccc(O)cc1)NC(=O)[C@@H](CCC(=O)O)NC(=O)[C@H](CC(=O)O)NC(=O)[C@@H](N)Cc1ccc(O)cc1
notes: Designed by structure-based virtual screening against the HylA crystal structure; also called 1932
For the molecule B1, the dissociation constant (Kd) in test [6] turned out to be 3.1 µM.
Turning to YCD[dE]Y[dE]S[dE]CY-NH2 (also: cyclic peptide with Cys2 and Cys9, mode of cyclization not given here, also called 1933) [peptide i933, Tyr-Cys-Asp-dGlu-Tyr-dGlu-Ser-dGlu-Cys-Tyr-NH2], the concentration for a half-maximal effect (EC50 (read off the curve)) (as a rule, the concentration needed to bring the measured effect to its halfway point) in test [7] was roughly 2 µM. Moreover, the Kd was determined as 292 µM in test [6] and 1.76 µM in test [8].
